The text below walks through data of article PMC12715762, “Discovery of VU6052254: A Novel, Potent M1 Positive Allosteric Modulator” (ACS Chemical Neuroscience, 2025).

Values after ≈ are worked out from the molar mass of the structure shown. A value given as a limit tells only on which side of the number the result lay.

The term EC50 denotes the midpoint of the concentration-response curve. By solubility is commonly meant the concentration that dissolves in the medium under given conditions.

One data set concerns hM2-5. The data set is described as follows: muscarinic selectivity calcium mobilization (human M2-5). The class given is cell-based. Here is the method:
Procedures for Biological Experiments
Calcium mobilization assays:
All functional cell-based assays were performed in stable Chinese Hamster Ovary (CHO) cell lines constitutively expressing human M5 or human M1 receptors. For full muscarinic selectivity, CHO cells expressing human M3, human M2 plus Gqi5 or human M4 plus Gqi5 were used. Cells were plated at 15,000 cells per 20 µL per well in black 384-well, TC-treated, clear-bottomed plates (Greiner) in Ham’s F12 medium supplemented with 10% FBS and 20 mM HEPES. Cells were incubated overnight at 37 °C under 5% CO2. […] The compound plate, cell plate, and plates containing EC20 and EC80 acetylcholine concentrations were placed in a Hamamatsu FDSS 6000 or 7000 kinetic imaging plate reader equipped to measure Ex480/Em540 fluorescence. […] After 2 seconds of collecting baseline fluorescence, 20 µL of the compound solutions were added to the cell plate. […] The fluorescence signal was collected for a total of 300 seconds. […] Data were imported and analyzed in Dotmatics Informatics software. by normalizing all data in the individual kinetic traces to the initial fluorescence read. The magnitude of each agonist addition was then determined and normalized to the average maximum response. […] The IC50 determined using the EC80 of acetylcholine is the value reported. […]
In general terms: Calcium assays in cells follow changes in intracellular calcium, usually with a dye or a luminescent sensor.

The target in a further data set is T1, mM1 (Mus musculus, UniProt P12657).
T1 construct: expressed in transfected cells
T1 sequence (P12657 1-460): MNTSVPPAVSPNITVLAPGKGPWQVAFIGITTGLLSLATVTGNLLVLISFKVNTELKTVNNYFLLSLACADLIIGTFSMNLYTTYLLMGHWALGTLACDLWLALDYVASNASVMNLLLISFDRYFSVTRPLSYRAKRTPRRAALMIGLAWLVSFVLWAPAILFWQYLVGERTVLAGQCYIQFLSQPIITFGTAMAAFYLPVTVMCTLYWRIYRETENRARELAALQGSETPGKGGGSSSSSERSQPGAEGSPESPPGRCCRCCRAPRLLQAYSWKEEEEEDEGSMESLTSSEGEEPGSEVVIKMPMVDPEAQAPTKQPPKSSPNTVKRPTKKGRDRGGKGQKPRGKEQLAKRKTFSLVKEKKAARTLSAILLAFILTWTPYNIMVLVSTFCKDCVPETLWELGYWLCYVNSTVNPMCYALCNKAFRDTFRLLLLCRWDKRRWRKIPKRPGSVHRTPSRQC
The data set is described as follows: M1 PAM calcium mobilization assay (mouse). It counts as cell-based. The note with it: mouse M1, n = 1.

A short description of data set [1]: predicted hepatic clearance (cyno). It counts as in vitro ADME. The note with it: cyno (c). Here is the method: After a 5 min preincubation, the reaction was initiated by the addition of NADPH (1 mM). At selected time intervals (0, 3, 7, 15, 25, and 45 min), aliquots were taken and subsequently placed into a 96-well plate containing cold acetonitrile with internal standard (50 ng/mL carbamazepine). Plates were then centrifuged at 3000 rcf (4 °C) for 10 min, and the supernatant was transferred to a separate 96-well plate and diluted 1:1 with water for LC/MS/MS analysis. The in vitro half-life ( 1/2, min, Eq. 1), intrinsic clearance (CLint, mL/min/kg, Eq. 2), and subsequent predicted hepatic clearance (CLhep, mL/min/kg, Eq. 3) was determined employing the […]
where k represents the slope from linear regression analysis of the natural log percent remaining of a test compound as a function of incubation time […]
(2) CLint = in vitroT x mg microsomes x gram liver x kg body wt ascale-up factors: of 20 (human) or 45 (rat) […]
where Qh (hepatic blood flow, mL/min/kg) is 21 (human) or 70 (rat).
LC/MS/MS Bioanalysis of Samples from Plasma Protein Binding and Intrinsic Clearance […]
Samples were analyzed on a Thermo Electron TSQ Quantum Ultra triple quad mass spectrometer (San Jose, CA) via electrospray ionization (ESI) with two Themo Electron Accella pumps (San Jose, CA), and a Leap Technologies CTC PAL autosampler (Carrboro, NC). […]

Data set [2] is described as follows: solubility in simulated intestinal fluid (FaSSIF). The class given is physicochemical.

As for `Cn1cc2c(-c3cc(F)c(CN4Cc5ncccc5C4=O)c(F)c3)cccc2n1` [compound 1, reference compound], the EC50 with hM2-5 was more than 30000 nM. On mM1, the concentration giving a half-maximal response (EC50) came out at 728 nM and the “mM1 PAM, percentage in brackets (AChmax)” value is on record as 56%. The “Predicted CLhep” value in data set [1] is 5.6 mL/min/kg. The same compound gave a solubility in data set [2] of 7 µg/mL (≈ 17.9 µM).
Taken in the same sequence, the figures for `Cn1cc2c(-c3cc(F)c(CN4Cc5ncccc5C4=O)c(F)c3)ccc(C(C)(C)O)c2n1` [compound 7] were more than 30000 nM, 80 nM, 63%, 17.7 mL/min/kg and 11 µg/mL (≈ 24.5 µM).
